Measured values as given in ChEMBL document CHEMBL4811216, “Chemotherapy for human schistosomiasis: how far have we come? What's new? Where do we go from here?” (RSC Med Chem, 2020).
One block for each compound: values may come before it.

Legend:
[1] = target: HDAC1 (histone deacetylase 1) (Homo sapiens, UniProt Q13547); experiment: Inhibition of human HDAC1 using Z-Lys(Ac)-AMC as substrate at 1 uM by fluorimetric method relative to control; settings: HDAC1 enzyme, probe Z-Lys(Ac)-AMC
Schistosoma mansoni [2] = experiment: Antischistosomal activity against Schistosoma mansoni incubated for 72 hrs by microscopic method; type: functional, organism-based
Schistosoma mansoni [3] = experiment: Antischistosomal activity against adult Schistosoma mansoni measured up to 72 hrs by microscopic method; type: functional, organism-based
Schistosoma mansoni [4] = experiment: Antischistosomal activity against Schistosoma mansoni NTS assessed as worm mortality at 10 uM measured up to 72 hrs by microscopic method relative to control; type: functional; settings: time hrs <=72
Schistosoma mansoni [5] = experiment: Antischistosomal activity against adult Schistosoma mansoni assessed as worm mortality at 10 uM measured up to 72 hrs by microscopic method relative to control; type: functional; settings: time hrs <=72
Schistosoma mansoni [6] = experiment: Antischistosomal activity against Schistosoma mansoni assessed as worm mortality at 5 ug/ml incubated for 5 days by stereomicroscopic method relative to control; type: functional; settings: 120 h, time 5 day
Schistosoma mansoni [7] = experiment: Antischistosomal activity against Schistosoma mansoni Puerto-Rican assessed as worm mortality incubated for 5 days by stereomicroscopic method; type: functional, organism-based; settings: 120 h; for IC90: time 5 day
Schistosoma mansoni [8] = experiment: Antischistosomal activity against Schistosoma mansoni Egyptian assessed as worm mortality incubated for 5 days by stereomicroscopic method; type: functional, organism-based; settings: 120 h; for IC90: time 5 day
[9] = Cytotoxicity against Biomphalaria alexandrina incubated for 24 hrs relative to control; set-up: concentration or dose not given beside the values
[10] = Cytotoxicity against Biomphalaria alexandrina incubated for 24 hrs
Schistosoma mansoni [11] = experiment: microbe, parasite or virus in culture; settings: Liberian, 72 h
Description: Antischistosomal activity against Schistosoma mansoni Liberian NTS incubated for 72 hrs by microscopic method

Schistosoma mansoni [12] = experiment: microbe, parasite or virus in culture; settings: 72 h
Description: Antischistosomal activity against Schistosoma mansoni incubated for 72 hrs by inverted microscopic method

Schistosoma haematobium = experiment: Antischistosomal activity against Schistosoma haematobium at 10 uM measured after 72 hrs relative to control; type: functional

Sequence of HDAC1 (histone deacetylase 1) (Q13547 whole entry): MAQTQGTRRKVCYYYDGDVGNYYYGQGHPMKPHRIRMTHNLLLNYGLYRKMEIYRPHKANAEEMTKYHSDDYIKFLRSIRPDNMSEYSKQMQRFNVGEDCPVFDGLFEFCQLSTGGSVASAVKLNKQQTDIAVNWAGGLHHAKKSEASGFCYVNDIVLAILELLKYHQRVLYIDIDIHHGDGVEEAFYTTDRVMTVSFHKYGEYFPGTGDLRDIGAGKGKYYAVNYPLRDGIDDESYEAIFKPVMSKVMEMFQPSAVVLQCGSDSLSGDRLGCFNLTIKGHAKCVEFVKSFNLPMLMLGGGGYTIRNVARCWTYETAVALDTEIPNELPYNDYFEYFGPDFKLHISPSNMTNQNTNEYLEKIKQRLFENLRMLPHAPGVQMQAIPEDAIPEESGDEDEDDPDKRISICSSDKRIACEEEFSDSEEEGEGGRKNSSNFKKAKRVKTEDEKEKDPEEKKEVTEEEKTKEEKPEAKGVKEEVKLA

inhibition at 1 µM [1]: < 10%
SMILES: Cc1cc(C)cc(CONC(=O)c2cccc(C(=O)NO)c2)c1

IC50 (Schistosoma mansoni [2]): 0.2 µM
SMILES: N#Cc1c(C(F)(F)F)cc(Nc2ccc(OC(F)(F)F)cc2)n2c1nc1cc(Cl)c(Cl)cc12

IC50 (Schistosoma mansoni [2]): 0.2 µM
SMILES: N#Cc1c(C(F)(F)F)cc(NCc2ccc(OC(F)(F)F)cc2)n2c1nc1cc(Cl)c(Cl)cc12

inhibition at 1 µM [1]: < 10%
SMILES: O=C(NO)c1cccc(C(=O)NOCCCc2ccccc2)c1

IC50 (Schistosoma mansoni [2]): 0.2 µM
SMILES: N#Cc1c(C(F)(F)F)cc(Nc2ccc(OC(F)(F)F)cc2)n2c1nc1ccccc12

IC50 (Schistosoma mansoni [2]): 0.2 µM
SMILES: FC(F)(F)Oc1ccc(Nc2cc(C(F)(F)F)cc3nc4ccccc4n23)cc1

IC50 (Schistosoma mansoni [2]): 0.2 µM
SMILES: N#Cc1c(C(F)(F)F)cc(NCc2ccco2)n2c1nc1cc(Cl)c(Cl)cc12

IC50 (Schistosoma mansoni [2]): 0.2 µM
SMILES: N#Cc1c(C(F)(F)F)cc(NCc2ccccn2)n2c1nc1cc(Cl)c(Cl)cc12

IC50 (Schistosoma mansoni [11]): 0.4 µM
IC50 (Schistosoma mansoni [12]): 2.5 µM
SMILES: CNc1nnc(Sc2cnn(-c3ccccc3)c(=O)c2Cl)s1
Activity (Schistosoma haematobium): 100%

inhibition at 1 µM [1]: < 10%
SMILES: O=C(NO)c1cccc(C(=O)NOCCc2ccccc2)c1

IC50 (Schistosoma mansoni [2]): 0.2 µM
SMILES: N#Cc1ccc(S(=O)(=O)Nc2cc(C(F)(F)F)cc3nc4cc(Cl)c(Cl)cc4n23)cc1

IC50 (Schistosoma mansoni [11]): 2.9 µM
IC50 (Schistosoma mansoni [12]): 4.9 µM
SMILES: CC(C)=CCC/C(C)=C\CNCCNC1C2CC3CC(C2)CC1C3 (stereo unspecified)
Activity (Schistosoma haematobium): 82.5%

IC50 (Schistosoma mansoni [2]): 0.2 µM
SMILES: O=S(=O)(Nc1cc(C(F)(F)F)cc2nc3cc(Cl)c(Cl)cc3n12)c1ccc(OC(F)(F)F)cc1

IC50 (Schistosoma mansoni [2]): 0.2 µM
SMILES: N#Cc1c(C(F)(F)F)cc(NCc2ccc(F)cc2)n2c1nc1cc(Cl)cc(Cl)c12

IC50 (Schistosoma mansoni [11]): 0.9 µM
IC50 (Schistosoma mansoni [12]): 6.8 µM
SMILES: COc1cccc(-n2nnnc2S(C)(=O)=O)c1
Activity (Schistosoma haematobium): 87.7%

IC50 (Schistosoma mansoni [2]): 0.2 µM
SMILES: CC(Nc1cc(C(F)(F)F)cc2nc3cc(Cl)c(Cl)cc3n12)c1ccc(S(C)(=O)=O)cc1 (stereo unspecified)

inhibition at 1 µM [1]: < 10%
SMILES: O=C(NO)c1cccc(C(=O)NNc2ccccc2)c1

inhibition at 1 µM [1]: < 10%
SMILES: O=C(NO)c1cccc(C(=O)NOCc2ccc(F)c(F)c2)c1

Further lines, the compound ahead of its results:

SMILES: CCNCCNc1cc(C2CCCCC2)c(C#N)c2nc3ccccc3n12
IC50 (Schistosoma mansoni [3]): 0.2 µM
mortality at 10 µM (Schistosoma mansoni [4]): > 70%

SMILES: CS(=O)(=O)c1ccc(Nc2cc(C(F)(F)F)c(C#N)c3nc4ccccc4n23)cc1
mortality at 10 µM (Schistosoma mansoni [5]): > 60%
IC50 (Schistosoma mansoni [3]): 0.2 µM
mortality at 10 µM (Schistosoma mansoni [4]): > 70%

SMILES: COc1ncnc(Nc2cc(C(F)(F)F)c(C#N)c3nc4ccccc4n23)c1OC
IC50 (Schistosoma mansoni [2]): 0.2 µM
mortality at 10 µM (Schistosoma mansoni [5]): > 60%
IC50 (Schistosoma mansoni [3]): 0.2 µM
mortality at 10 µM (Schistosoma mansoni [4]): > 70%

SMILES: CCN(CC)CCCC(C)Nc1c2c3ccccc3nc-2n(C)c2cc(Cl)ccc12 (stereo unspecified)
mortality at 5 µg/mL (Schistosoma mansoni [6]): 100%
IC50 (Schistosoma mansoni [7]): 29.3 µM
IC90 (Schistosoma mansoni [7]): 32.8 µM
IC50 (Schistosoma mansoni [8]): 19.3 µM
IC90 (Schistosoma mansoni [8]): 24.3 µM

SMILES: CN1CCN(c2c3cc(Cl)ccc3nc3[nH]c4ccccc4c23)CC1
mortality [9]: 100%
mortality at 5 µg/mL (Schistosoma mansoni [6]): 100%
IC50 (Schistosoma mansoni [7]): 6.27 µM
IC90 (Schistosoma mansoni [7]): 17.9 µM
LC50 [10]: 0.63 µM
LC90 [10]: 0.91 µM
IC50 (Schistosoma mansoni [8]): 5.41 µM
IC90 (Schistosoma mansoni [8]): 13.7 µM

SMILES: Cn1c2nc3ccccc3c-2c(N2CCC(N3CCCCC3)CC2)c2cc(Cl)ccc21
mortality [9]: 100%
mortality at 5 µg/mL (Schistosoma mansoni [6]): 100%
IC50 (Schistosoma mansoni [7]): 7.85 µM
IC90 (Schistosoma mansoni [7]): 13.4 µM
LC50 [10]: 2.6 µM
LC90 [10]: 3.5 µM
IC50 (Schistosoma mansoni [8]): 3.46 µM
IC90 (Schistosoma mansoni [8]): 8.31 µM

SMILES: Clc1ccc2nc3[nH]c4ccccc4c3c(NCCN3CCOCC3)c2c1
mortality at 5 µg/mL (Schistosoma mansoni [6]): 100%
IC50 (Schistosoma mansoni [7]): 7.61 µM
IC90 (Schistosoma mansoni [7]): 11 µM
IC50 (Schistosoma mansoni [8]): 3.41 µM
IC90 (Schistosoma mansoni [8]): 6.3 µM

SMILES: CCN1CCCC1CNc1c2c3ccccc3nc-2n(C)c2ccc(Cl)cc12 (stereo unspecified)
mortality [9]: 100%
LC50 [10]: 2.95 µM
LC90 [10]: 4.1 µM

SMILES: CN1CCC(Nc2cc(-c3ccc(C(F)(F)F)cc3)c(C#N)c3nc4cc(Cl)c(Cl)cc4n23)CC1
IC50 (Schistosoma mansoni [3]): 0.2 µM
mortality at 10 µM (Schistosoma mansoni [4]): > 70%

SMILES: CCNCCNc1cc(-c2ccc(Cl)c(Cl)c2)c(C#N)c2nc3ccccc3n12
IC50 (Schistosoma mansoni [3]): 0.2 µM
mortality at 10 µM (Schistosoma mansoni [4]): > 70%

SMILES: N#Cc1c(C(F)(F)F)cc(Nc2ccc3nc(NCCN4CCCC4)oc3c2)n2c1nc1ccccc12
mortality at 10 µM (Schistosoma mansoni [5]): > 60%
IC50 (Schistosoma mansoni [3]): 0.2 µM
mortality at 10 µM (Schistosoma mansoni [4]): > 70%

SMILES: CCNCCNc1cc(-c2ccc(C(F)(F)F)cc2)c(C#N)c2nc3cc(Cl)ccc3n12
IC50 (Schistosoma mansoni [3]): 0.2 µM
mortality at 10 µM (Schistosoma mansoni [4]): > 70%

SMILES: CNC1CCN(c2cc(-c3ccc(C(F)(F)F)cc3)c(C#N)c3nc4ccccc4n23)C1 (stereo unspecified)
IC50 (Schistosoma mansoni [3]): 0.2 µM
mortality at 10 µM (Schistosoma mansoni [4]): > 70%

SMILES: Cc1csc(Nc2cc(C(F)(F)F)c(C#N)c3nc4ccccc4n23)n1
mortality at 10 µM (Schistosoma mansoni [5]): > 60%
IC50 (Schistosoma mansoni [3]): 0.2 µM
mortality at 10 µM (Schistosoma mansoni [4]): > 70%

SMILES: CCN(CC)CCCC(C)Nc1cc(-c2ccc(C(F)(F)F)cc2)c(C#N)c2nc3ccccc3n12 (stereo unspecified)
IC50 (Schistosoma mansoni [3]): 0.2 µM
mortality at 10 µM (Schistosoma mansoni [4]): > 70%

SMILES: N#Cc1c(C(F)(F)F)cc(Nc2ccnc(F)c2)n2c1nc1ccccc12
mortality at 10 µM (Schistosoma mansoni [5]): > 60%
IC50 (Schistosoma mansoni [3]): 0.2 µM
mortality at 10 µM (Schistosoma mansoni [4]): > 70%
